IC50 and Kd data for 16 compounds are collected here from patent US20240316022A1 (TYRA BIOSCIENCES, INC., priority 2021, published 2024).

The target in one assay is T1, BCR-FGFR4 Ba/F3 (Homo sapiens, UniProt P22455).
T1 construct: host or cells: Ba/F3; the other entry of the earlier key: BCR (P11274, Breakpoint cluster region protein)
Nature of the assay: Ba/F3 cell viability assay (CellTiter-Glo 2.0). Type of assay: cell-based. The settings on record: Ba/F3 BCR-FGFR4 cells, 48 hours. The source says: (§1) Experimental Purpose: Recombinant kinase fusions are transduced into parental Ba/F3, which becomes dependent upon this constitutive kinase activity for IL3-independent survival. Inhibition of kinase activity leads to cell death, which is monitored using CellTiter-Glo® 2.0 (Promega) which measures intracellular ATP concentration that in turn serves as a marker for viability. BCR-FGFR4 Ba/F3, BCR-FGFR1 Ba/F3 and FGFR3-BAIAP2L1 Ba/F3 were obtained from Advanced Cellular Dynamics (Seattle, WA)
(§2) Cell Viability Assay Procedure: Cell Titer-Glo® 2.0 Luminescent cell viability assay reagent was purchased from Promega (Madison, WI). BCR-FGFR4 Ba/F3, BCR-FGFR1 Ba/F3 and FGFR3-BAIAP2L1 Ba/F3 cells were cultured in RPMI1640 media supplemented with 10% fetal bovine serum. Cultures were maintained at 37° C. in a humidified atmosphere of 5% CO2 and 95% air.
(§3) Cells were plated in 96-well clear bottom/white plates (Corning #3903) at 10,000 cells/well in 100 μl of media, incubated overnight. The next day, test compound DMSO stock solutions were made at 10 mM and 2 μM final concentration. Compounds were then added to cells in a 9-dose, 10-fold dilution series starting at 30 μM with an HP 300e Digital Dispenser (each dose was applied in triplicate). DMSO was backfilled to each well up to 301 nL total volume of test compound+DMSO, and a total of 301 nL DMSO was added to a control/no test compound well in triplicate. The cells in cell culture plates were incubated with the compounds at 37° C. and 5% CO2 for 48 hours. Then 50 μl of Cell Titer Glo 2.0 reagent was added to each well of the cell culture plates. The contents were covered from light and mixed on an orbital shaker at room temperature for 10 min. Luminescence was recorded by a Synergy H1 Microplate Reader (Biotek, Winooski, VT). Cells were assessed as a percentage of DMSO only treated control cells. Curves were plotted and IC50 values were calculated using the GraphPad Prism 8 program based on a sigmoidal dose-response equation (4 parameter).
On the technique in general: Cellular ATP, detected with luciferase, serves as a proxy for viable cell number.

The target in the next assay is T2, FGFR1 (Homo sapiens, UniProt P11362).
T2 construct: made in house; host or cells: E. coli derived from BL21, infected with T7 phage
Nature of the assay: Kinase binding assay (kinase-tagged T7 phage, qPCR), Kd. The following applies: read-out: FGFR1 (Kd nM). For orientation: In qPCR the cycle at which signal appears reflects the starting amount.

For another assay, the target named is T3, FGFR2 (Homo sapiens, UniProt P21802).
T3 construct: made in house; host or cells: E. coli derived from BL21, infected with T7 phage
The description is as above. The settings on record: read-out: FGFR2 (Kd nM).

The target in the next assay is T4, FGFR3 (Homo sapiens, UniProt P22607).
T4 construct: made in house; host or cells: E. coli derived from BL21, infected with T7 phage
The assay is described as above. The settings on record: read-out: FGFR3 (Kd nM).

The target of a further assay is T5, FGFR4 (Homo sapiens, UniProt P22455).
T5 construct: made in house; host or cells: E. coli derived from BL21, infected with T7 phage
The description is as above. The following applies: read-out: FGFR4 (Kd nM).

In another assay the target is T6, FGFR3-BAIAP2L1 Ba/F3 (Homo sapiens, UniProt P22607).
T6 construct: host or cells: Ba/F3; the other entry of the earlier key: BAIAP2L1 (Q9UHR4, BAR/IMD domain-containing adapter protein 2-like 1)
In words: Ba/F3 cell viability assay (CellTiter-Glo 2.0). The settings on record: Ba/F3 FGFR3-BAIAP2L1 cells, 48 hours. In kind it is cell-based.
Source text: as §1, §2, §3

The next assay has as its target T7, BCR-FGFR1 Ba/F3 (Homo sapiens, UniProt P11362).
T7 construct: host or cells: Ba/F3; the other entry of the earlier key: BCR (P11274, Breakpoint cluster region protein)
Nature of the assay: Ba/F3 cell viability assay (CellTiter-Glo 2.0). In kind it is cell-based. The following applies: Ba/F3 BCR-FGFR1 cells, 48 hours.
Source text: as §1, §2, §3

What is called IC50 is the midpoint of a concentration-inhibition curve. One may read the Kd as the constant that tells how readily two partners part at equilibrium.

T3 sequence (P21802 22-821): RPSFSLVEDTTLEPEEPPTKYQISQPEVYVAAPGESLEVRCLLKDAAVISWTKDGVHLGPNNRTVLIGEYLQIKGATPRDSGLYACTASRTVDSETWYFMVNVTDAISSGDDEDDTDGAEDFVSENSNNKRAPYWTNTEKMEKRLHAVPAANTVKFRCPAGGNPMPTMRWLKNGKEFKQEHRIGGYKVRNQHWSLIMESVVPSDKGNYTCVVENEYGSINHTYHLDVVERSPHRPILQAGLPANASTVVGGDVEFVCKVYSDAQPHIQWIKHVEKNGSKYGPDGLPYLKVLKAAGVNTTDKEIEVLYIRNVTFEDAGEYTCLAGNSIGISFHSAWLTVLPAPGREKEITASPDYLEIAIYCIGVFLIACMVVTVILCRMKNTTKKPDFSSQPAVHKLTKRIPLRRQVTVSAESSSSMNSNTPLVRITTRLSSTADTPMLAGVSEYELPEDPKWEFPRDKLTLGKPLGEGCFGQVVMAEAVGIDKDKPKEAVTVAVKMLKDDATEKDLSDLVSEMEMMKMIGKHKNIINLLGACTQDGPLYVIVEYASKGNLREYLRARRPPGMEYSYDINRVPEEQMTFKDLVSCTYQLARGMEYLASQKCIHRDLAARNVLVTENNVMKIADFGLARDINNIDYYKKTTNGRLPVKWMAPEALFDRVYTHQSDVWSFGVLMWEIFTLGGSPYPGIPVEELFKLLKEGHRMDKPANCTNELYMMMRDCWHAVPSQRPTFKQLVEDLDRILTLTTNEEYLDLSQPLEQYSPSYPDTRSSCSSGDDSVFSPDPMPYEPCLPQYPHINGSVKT
T1 sequence (P22455 467-755 limits assumed): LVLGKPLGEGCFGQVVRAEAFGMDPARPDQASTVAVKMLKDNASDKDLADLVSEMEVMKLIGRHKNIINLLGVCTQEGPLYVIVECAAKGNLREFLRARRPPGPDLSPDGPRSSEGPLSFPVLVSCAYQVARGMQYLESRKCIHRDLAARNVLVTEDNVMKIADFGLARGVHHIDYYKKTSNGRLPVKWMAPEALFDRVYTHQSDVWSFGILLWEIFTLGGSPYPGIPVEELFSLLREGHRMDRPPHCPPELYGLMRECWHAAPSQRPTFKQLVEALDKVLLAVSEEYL
T5 sequence (P22455 22-802): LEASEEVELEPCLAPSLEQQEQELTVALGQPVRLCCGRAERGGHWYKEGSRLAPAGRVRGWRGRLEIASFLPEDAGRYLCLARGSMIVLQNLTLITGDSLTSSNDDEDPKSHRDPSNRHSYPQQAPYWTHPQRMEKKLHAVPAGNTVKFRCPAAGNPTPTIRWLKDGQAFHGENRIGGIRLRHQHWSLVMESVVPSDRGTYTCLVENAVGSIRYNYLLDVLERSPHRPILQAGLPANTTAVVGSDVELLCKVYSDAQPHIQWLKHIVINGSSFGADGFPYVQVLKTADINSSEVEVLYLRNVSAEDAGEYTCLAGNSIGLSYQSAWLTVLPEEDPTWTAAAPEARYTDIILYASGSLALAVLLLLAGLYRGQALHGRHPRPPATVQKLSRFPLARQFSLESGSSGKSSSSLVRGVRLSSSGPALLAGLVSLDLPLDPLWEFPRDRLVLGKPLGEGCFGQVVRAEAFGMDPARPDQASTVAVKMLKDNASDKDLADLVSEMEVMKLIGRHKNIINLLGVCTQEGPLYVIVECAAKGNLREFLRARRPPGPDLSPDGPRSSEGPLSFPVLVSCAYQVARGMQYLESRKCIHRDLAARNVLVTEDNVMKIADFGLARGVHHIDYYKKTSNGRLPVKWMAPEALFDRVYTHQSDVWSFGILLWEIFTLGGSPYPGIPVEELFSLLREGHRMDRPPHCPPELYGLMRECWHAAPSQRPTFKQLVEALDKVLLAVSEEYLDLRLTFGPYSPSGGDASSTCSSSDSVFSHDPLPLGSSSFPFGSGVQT
T6 sequence (P22607 397-758 limits assumed): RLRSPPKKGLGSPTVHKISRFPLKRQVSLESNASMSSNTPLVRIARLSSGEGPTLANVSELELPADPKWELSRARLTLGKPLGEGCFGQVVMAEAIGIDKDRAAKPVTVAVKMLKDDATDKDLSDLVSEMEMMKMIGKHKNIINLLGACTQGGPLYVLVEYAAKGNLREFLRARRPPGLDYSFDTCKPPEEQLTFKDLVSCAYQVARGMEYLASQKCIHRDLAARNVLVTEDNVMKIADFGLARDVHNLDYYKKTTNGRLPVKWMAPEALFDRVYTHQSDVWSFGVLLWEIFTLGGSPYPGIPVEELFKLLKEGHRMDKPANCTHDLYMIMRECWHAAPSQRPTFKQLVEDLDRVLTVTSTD
T4 sequence (P22607 23-806): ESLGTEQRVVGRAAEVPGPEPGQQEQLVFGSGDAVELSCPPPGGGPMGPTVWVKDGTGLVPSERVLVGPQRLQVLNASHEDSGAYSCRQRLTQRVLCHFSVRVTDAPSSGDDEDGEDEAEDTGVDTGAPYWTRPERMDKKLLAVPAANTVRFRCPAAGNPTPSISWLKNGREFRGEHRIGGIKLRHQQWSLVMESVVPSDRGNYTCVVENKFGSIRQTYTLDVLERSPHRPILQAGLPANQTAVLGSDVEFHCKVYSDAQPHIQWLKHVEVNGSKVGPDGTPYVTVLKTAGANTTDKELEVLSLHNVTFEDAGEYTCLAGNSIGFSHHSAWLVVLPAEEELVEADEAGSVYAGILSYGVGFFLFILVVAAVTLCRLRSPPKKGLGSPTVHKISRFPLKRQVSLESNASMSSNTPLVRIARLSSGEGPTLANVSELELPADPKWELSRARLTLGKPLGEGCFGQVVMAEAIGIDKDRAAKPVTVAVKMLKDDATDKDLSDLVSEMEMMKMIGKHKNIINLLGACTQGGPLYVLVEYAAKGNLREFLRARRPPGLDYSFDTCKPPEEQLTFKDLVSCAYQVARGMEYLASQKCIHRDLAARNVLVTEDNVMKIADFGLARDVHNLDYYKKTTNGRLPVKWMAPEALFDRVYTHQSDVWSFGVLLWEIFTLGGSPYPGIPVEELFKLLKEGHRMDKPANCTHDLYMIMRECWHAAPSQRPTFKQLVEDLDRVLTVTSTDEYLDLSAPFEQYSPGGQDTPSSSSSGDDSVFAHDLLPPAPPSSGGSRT
T2 sequence (P11362 22-822): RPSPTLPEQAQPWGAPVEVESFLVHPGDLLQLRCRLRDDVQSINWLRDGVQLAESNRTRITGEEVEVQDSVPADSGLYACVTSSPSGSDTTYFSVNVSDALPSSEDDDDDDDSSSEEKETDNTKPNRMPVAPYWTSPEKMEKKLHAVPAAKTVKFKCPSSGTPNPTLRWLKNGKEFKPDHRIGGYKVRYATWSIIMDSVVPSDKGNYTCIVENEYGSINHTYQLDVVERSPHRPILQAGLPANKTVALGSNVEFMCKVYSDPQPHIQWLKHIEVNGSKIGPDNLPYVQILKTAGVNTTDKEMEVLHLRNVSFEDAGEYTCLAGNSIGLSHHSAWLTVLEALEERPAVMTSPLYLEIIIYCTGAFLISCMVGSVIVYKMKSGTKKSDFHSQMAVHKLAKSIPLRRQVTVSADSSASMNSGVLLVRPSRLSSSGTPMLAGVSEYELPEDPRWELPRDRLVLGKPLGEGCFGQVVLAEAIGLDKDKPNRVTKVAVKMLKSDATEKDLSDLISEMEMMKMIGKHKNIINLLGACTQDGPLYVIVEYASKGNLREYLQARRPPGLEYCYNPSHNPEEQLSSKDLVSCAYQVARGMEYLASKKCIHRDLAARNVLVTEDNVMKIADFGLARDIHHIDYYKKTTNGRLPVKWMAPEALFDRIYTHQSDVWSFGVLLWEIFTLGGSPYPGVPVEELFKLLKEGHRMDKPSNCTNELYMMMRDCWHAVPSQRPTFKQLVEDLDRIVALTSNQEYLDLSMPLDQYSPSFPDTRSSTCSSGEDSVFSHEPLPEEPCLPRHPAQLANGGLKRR
T7 sequence (P11362 478-767 limits assumed): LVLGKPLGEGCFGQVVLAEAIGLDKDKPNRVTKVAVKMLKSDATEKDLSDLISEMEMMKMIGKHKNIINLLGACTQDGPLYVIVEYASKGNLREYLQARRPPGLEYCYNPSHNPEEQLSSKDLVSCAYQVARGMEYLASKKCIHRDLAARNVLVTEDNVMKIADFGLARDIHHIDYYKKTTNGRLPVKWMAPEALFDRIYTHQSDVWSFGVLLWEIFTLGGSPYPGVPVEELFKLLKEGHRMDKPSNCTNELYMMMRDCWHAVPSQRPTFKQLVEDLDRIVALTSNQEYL

`COc1cc(-c2n[nH]c3ccc(O[C@H](C)c4c(Cl)cncc4Cl)cc23)cnc1N` [Example 34, 5-[5-[(1R)-1-(3,5-dichloro-4-pyridyl)ethoxy]-1H-indazol-3-yl]-3-methoxy-pyridin-2-amine]: the IC50 at BCR-FGFR4 Ba/F3 lay in the range of 250 to 1000 nM. Also, the equilibrium dissociation constant (Kd) on FGFR1 lay in the range of 250 to 1000 nM; at FGFR2, 250 to 1000 nM; on FGFR3 it was 0.1 to 100 nM; at FGFR4, 0.1 to 100 nM.
Turning to `C[C@@H](Oc1ccc2[nH]nc(-c3cnc4c(c3)N(C(=O)CCN(C)C)CCO4)c2c1)c1c(Cl)cncc1Cl` [Example 26, 1-[7-[5-[(1R)-1-(3,5-dichloro-4-pyridyl)ethoxy]-1H-indazol-3-yl]-2,3-dihydropyrido[2,3-b][1,4]oxazin-1-yl]-3-(dimethyl-amino)propan-1-one], the IC50 on BCR-FGFR4 Ba/F3 lay within 0.1 to 100 nM. For the same compound, the equilibrium dissociation constant (Kd) on FGFR1 was above 1000 nM; on FGFR2 it was above 1000 nM; at FGFR3, 250 to 1000 nM; on FGFR4 it was 0.1 to 100 nM.
As to `C[C@@H](Oc1ccc2[nH]nc(-c3cnc4c(c3)N(CCO)CCO4)c2c1)c1c(Cl)cncc1Cl` [Example 49, 2-[7-[5-[(1R)-1-(3,5-dichloro-4-pyridyl)ethoxy]-1H-indazol-3-yl]-2,3-dihydro-pyrido[2,3-b][1,4]oxazin-1-yl]ethanol], on BCR-FGFR4 Ba/F3, the IC50 is 250 to 1000 nM. Further, the equilibrium dissociation constant (Kd) at FGFR1 is above 1000 nM; at FGFR2 it was above 1000 nM; on FGFR3 it was 250 to 1000 nM; at FGFR4 it was 100 to 250 nM.
For the compound `C[C@@H](Oc1ccc2[nH]nc(-c3cnc4c(c3)N(C(=O)c3ccccn3)CCO4)c2c1)c1c(Cl)cncc1Cl` [Example 20, [7-[5-[(1R)-1-(3,5-dichloro-4-pyridyl)ethoxy]-1H-indazol-3-yl]-2,3-dihydropyrido[2,3-b][1,4]oxazin-1-yl]-(2-pyridyl)methanone], the IC50 at BCR-FGFR4 Ba/F3 was 250 to 1000 nM. The Kd at FGFR1 lay in the range of 100 to 250 nM; on FGFR2, 100 to 250 nM; at FGFR3, 0.1 to 100 nM; on FGFR4, 0.1 to 100 nM.
On to `COc1cc(C#N)cc(-c2n[nH]c3ccc(O[C@H](C)c4c(C)cnnc4C)cc23)c1` [Example 53, 3-[5-[(1R)-1-(3,5-dimethylpyridazin-4-yl)ethoxy]-1H-indazol-3-yl]-5-methoxy-benzonitrile], for which the IC50 on BCR-FGFR4 Ba/F3 is 250 to 1000 nM. In addition, the equilibrium dissociation constant (Kd) at FGFR1 is 250 to 1000 nM; at FGFR2, 0.1 to 100 nM; on FGFR3, 0.1 to 100 nM; at FGFR4 it was 0.1 to 100 nM.
For `Cc1ccc(C(=O)N2CCOc3ncc(-c4n[nH]c5ccc(O[C@H](C)c6c(Cl)cncc6Cl)cc45)cc32)cn1` [Example 41], the 50% inhibitory concentration (IC50) on BCR-FGFR4 Ba/F3 was in the range of 250 to 1000 nM. Moreover, the dissociation constant (Kd) at FGFR1 is 0.1 to 100 nM; at FGFR2, 100 to 250 nM; on FGFR3, 0.1 to 100 nM; at FGFR4 it was 0.1 to 100 nM.
For the compound `COc1cc(NC(=O)c2ccccn2)cc(-c2n[nH]c3ccc(O[C@H](C)c4c(Cl)cncc4Cl)cc23)c1` [Example 45, N-[3-[5-[(1R)-1-(3,5-dichloro-4-pyridyl)ethoxy]-1H-indazol-3-yl]-5-methoxy-phenyl]pyridine-2-carboxamide], the 50% inhibitory concentration (IC50) on BCR-FGFR4 Ba/F3 lay within 250 to 1000 nM. The dissociation constant Kd was 250 to 1000 nM at FGFR1, above 1000 nM at FGFR2, 0.1 to 100 nM on FGFR3 and 0.1 to 100 nM at FGFR4.
As for `C[C@@H](Oc1ccc2[nH]nc(-c3ccc(NC(=O)N4CCOCC4)nc3)c2c1)c1c(Cl)cncc1Cl` [Example 16, N-[5-[5-[(1R)-1-(3,5-dichloro-4-pyridyl)ethoxy]-1H-indazol-3-yl]-2-pyridyl]morpholine-4-carboxamide], the IC50 on FGFR3-BAIAP2L1 Ba/F3 and at BCR-FGFR1 Ba/F3 was 0.1 to 100 nM throughout. Moreover, the Kd on FGFR1, on FGFR2, at FGFR3 and at FGFR4 was 0.1 to 100 nM in each case.
For `C[C@@H](Oc1ccc2[nH]nc(-c3cnc(N)c(C#N)c3)c2c1)c1c(Cl)cncc1Cl` [Example 30, 2-amino-5-[5-[(1R)-1-(3,5-dichloro-4-pyridyl)ethoxy]-1H-indazol-3-yl]pyridine-3-carbonitrile], on BCR-FGFR4 Ba/F3, the IC50 fell in the range of 250 to 1000 nM. Further, the Kd on FGFR1 is 0.1 to 100 nM; on FGFR2, above 1000 nM; on FGFR3 it was 0.1 to 100 nM; on FGFR4 it was 0.1 to 100 nM.
In the case of `Cc1cnnc(C)c1[C@@H](C)Oc1ccc2[nH]nc(-c3ccc4c(c3)COC3(CCN(C(C)C)CC3)O4)c2c1` [Example 112, (R)-6-(5-(1-(3,5-dimethylpyridazin-4-yl)ethoxy)-1H-indazol-3-yl)-1′-isopropyl-4H-spiro[benzo[d][1,3]dioxine-2,4′-piperidine]], the IC50 on FGFR3-BAIAP2L1 Ba/F3 and on BCR-FGFR1 Ba/F3 was 0.1 to 100 nM throughout. Moreover, the dissociation constant (Kd) on FGFR1, on FGFR2, at FGFR3 and on FGFR4 was 0.1 to 100 nM throughout.
With `C[C@@H](Oc1ccc2[nH]nc(-c3cnc4c(c3)NCCO4)c2c1)c1c(Cl)cncc1Cl` [Example 17, 7-[5-[(1R)-1-(3,5-dichloro-4-pyridyl)ethoxy]-1H-indazol-3-yl]-2,3-dihydro-1H-pyrido[2,3-b][1,4]oxazine], at BCR-FGFR4 Ba/F3, the half-inhibitory concentration (IC50) lay in the range of 250 to 1000 nM. Further, the Kd on FGFR1, on FGFR2, at FGFR3 and on FGFR4 was 0.1 to 100 nM throughout.
As to `Cc1ncccc1C(=O)N1CCOc2ncc(-c3n[nH]c4ccc(O[C@H](C)c5c(Cl)cncc5Cl)cc34)cc21` [Example 42, [7-[5-[(1R)-1-(3,5-dichloro-4-pyridyl)ethoxy]-1H-indazol-3-yl]-2,3-dihydro-pyrido[2,3-b][1,4]oxazin-1-yl]-(2-methyl-3-pyridyl)methanone], the half-inhibitory concentration (IC50) at BCR-FGFR4 Ba/F3 is above 1000 nM. For the same compound, the Kd on FGFR1 was above 1000 nM; at FGFR2, above 1000 nM; at FGFR3, 100 to 250 nM; at FGFR4 it was 0.1 to 100 nM.
Regarding `C[C@@H](Oc1ccc2[nH]nc(-c3ccc(NC4CC5(C4)CN(S(C)(=O)=O)C5)nc3)c2c1)c1c(Cl)cncc1Cl` [Example 159, (R)-N-(5-(5-(1-(3,5-dichloropyridin-4-yl)ethoxy)-1H-indazol-3-yl)pyridin-2-yl)-2-(methylsulfonyl)-2-azaspiro[3.3]heptan-6-amine], the IC50 on FGFR3-BAIAP2L1 Ba/F3 and at BCR-FGFR1 Ba/F3 was 0.1 to 100 nM throughout. In addition, the Kd on FGFR1, on FGFR2, at FGFR3 and at FGFR4 was 0.1 to 100 nM throughout.
For the compound `Cc1ncc(Cl)c([C@@H](C)Oc2ccc3[nH]nc(-c4ccc(O[C@H]5CCOC5)nc4)c3c2)c1Cl` [Example 150, 5-[(1R)-1-(3,5-dichloro-2-methyl-4-pyridyl)ethoxy]-3-[6-[(3S)-tetrahydrofuran-3-yl]oxy-3-pyridyl]-1H-indazole], the IC50 lay within 0.1 to 100 nM at FGFR3-BAIAP2L1 Ba/F3 and 250 to 1000 nM on BCR-FGFR1 Ba/F3. Further, the Kd on FGFR1, at FGFR2, at FGFR3 and on FGFR4 was 0.1 to 100 nM throughout.
Consider `Cc1cc(-c2n[nH]c3ccc(O[C@H](C)c4c(Cl)cncc4Cl)cc23)cnc1N[C@@H]1CCOC1` [Example 158, 5-(5-((R)-1-(3,5-dichloropyridin-4-yl)ethoxy)-1H-indazol-3-yl)-3-methyl-N-((R)-tetrahydrofuran-3-yl)pyridin-2-amine], for which the IC50 is 0.1 to 100 nM at FGFR3-BAIAP2L1 Ba/F3 and 250 to 1000 nM at BCR-FGFR1 Ba/F3. Besides, the dissociation constant Kd at FGFR1 fell in the range of 0.1 to 100 nM; at FGFR2, 100 to 250 nM; on FGFR3, 0.1 to 100 nM; at FGFR4, 0.1 to 100 nM.
As for `CNC(=O)c1ccc(-c2n[nH]c3ccc(O[C@H](C)c4c(Cl)cncc4Cl)cc23)cn1` [Example 9, (R)-5-(5-(1-(3,5-Dichloropyridin-4-yl)ethoxy)-1H-indazol-3-yl)-N-methylpicolinamide], the values for the half-inhibitory concentration (IC50) at FGFR3-BAIAP2L1 Ba/F3 and on BCR-FGFR1 Ba/F3 were 0.1 to 100 nM and 100 to 250 nM, respectively. Besides, the Kd on FGFR1, at FGFR2, at FGFR3 and at FGFR4 was 0.1 to 100 nM throughout.
